Experimental data as given in publication doi:10.1101/2022.09.08.507076v2 (biorxiv, 2022).

Key:
Assay type in all cases: biochemical
CYP1A2 = biological target: T1, CYP1A2 (Homo sapiens, UniProt P05177); experiment: recombinant CYP inhibition, fluorescence
T1 sequence (P05177 2-516): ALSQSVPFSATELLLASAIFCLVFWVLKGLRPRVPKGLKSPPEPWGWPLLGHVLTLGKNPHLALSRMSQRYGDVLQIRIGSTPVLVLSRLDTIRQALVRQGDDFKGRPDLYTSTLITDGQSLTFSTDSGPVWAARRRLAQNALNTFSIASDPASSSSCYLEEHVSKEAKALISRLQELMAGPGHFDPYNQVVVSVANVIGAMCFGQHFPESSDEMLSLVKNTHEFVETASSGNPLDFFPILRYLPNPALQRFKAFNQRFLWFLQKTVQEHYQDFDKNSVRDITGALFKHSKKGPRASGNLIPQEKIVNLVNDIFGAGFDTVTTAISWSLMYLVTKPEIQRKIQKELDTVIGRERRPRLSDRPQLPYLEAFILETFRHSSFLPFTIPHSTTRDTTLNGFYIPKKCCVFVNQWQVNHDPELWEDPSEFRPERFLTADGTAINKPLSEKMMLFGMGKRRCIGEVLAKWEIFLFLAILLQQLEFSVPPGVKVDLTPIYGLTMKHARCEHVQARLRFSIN

human topoisomerase IIα = human topoisomerase IIα (Homo sapiens, UniProt P11388); experiment: human topoisomerase IIα decatenation assay
Chain of human topoisomerase IIα (P11388 whole entry): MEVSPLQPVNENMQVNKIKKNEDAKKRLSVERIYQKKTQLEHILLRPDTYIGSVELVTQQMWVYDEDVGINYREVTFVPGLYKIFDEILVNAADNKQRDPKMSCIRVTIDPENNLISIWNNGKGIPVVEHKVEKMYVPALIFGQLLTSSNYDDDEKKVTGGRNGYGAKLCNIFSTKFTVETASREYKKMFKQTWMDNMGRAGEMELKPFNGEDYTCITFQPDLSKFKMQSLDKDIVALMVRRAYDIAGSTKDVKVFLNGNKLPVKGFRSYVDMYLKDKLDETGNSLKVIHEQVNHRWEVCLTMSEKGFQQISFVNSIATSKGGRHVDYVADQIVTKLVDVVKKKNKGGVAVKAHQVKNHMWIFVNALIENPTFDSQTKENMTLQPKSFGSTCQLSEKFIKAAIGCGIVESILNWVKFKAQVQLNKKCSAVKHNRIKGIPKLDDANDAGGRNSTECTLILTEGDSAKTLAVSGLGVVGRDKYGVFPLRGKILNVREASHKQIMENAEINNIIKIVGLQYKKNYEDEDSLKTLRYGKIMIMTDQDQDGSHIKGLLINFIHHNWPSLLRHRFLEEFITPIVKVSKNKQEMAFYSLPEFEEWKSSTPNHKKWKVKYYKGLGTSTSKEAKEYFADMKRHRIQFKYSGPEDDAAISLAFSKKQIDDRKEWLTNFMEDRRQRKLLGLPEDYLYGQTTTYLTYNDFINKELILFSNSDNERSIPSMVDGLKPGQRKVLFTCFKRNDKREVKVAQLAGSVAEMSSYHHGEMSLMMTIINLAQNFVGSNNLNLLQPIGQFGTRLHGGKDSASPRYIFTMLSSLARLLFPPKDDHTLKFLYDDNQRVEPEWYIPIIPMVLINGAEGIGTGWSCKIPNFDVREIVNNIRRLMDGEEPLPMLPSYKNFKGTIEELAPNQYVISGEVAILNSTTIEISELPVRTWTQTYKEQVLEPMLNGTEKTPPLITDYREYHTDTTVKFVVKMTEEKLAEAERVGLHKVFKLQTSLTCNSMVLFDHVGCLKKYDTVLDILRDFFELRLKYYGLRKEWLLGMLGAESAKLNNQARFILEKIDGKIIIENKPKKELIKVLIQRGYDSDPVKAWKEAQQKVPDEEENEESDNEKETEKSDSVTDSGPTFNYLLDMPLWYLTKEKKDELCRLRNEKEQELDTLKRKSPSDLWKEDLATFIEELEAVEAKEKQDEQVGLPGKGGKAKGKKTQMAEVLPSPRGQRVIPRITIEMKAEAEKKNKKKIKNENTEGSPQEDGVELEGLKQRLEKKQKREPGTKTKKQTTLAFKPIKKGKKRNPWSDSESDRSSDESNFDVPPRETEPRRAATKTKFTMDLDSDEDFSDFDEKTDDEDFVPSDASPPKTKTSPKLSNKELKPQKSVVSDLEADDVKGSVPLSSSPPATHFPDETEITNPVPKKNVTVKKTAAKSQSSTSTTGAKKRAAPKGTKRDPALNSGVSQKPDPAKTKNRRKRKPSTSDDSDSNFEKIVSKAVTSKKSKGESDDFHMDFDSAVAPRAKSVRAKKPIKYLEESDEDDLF

CYP2C9 = CYP2C9 (Homo sapiens, UniProt P11712); experiment: recombinant CYP inhibition, fluorescence
Chain of CYP2C9 (P11712 whole entry): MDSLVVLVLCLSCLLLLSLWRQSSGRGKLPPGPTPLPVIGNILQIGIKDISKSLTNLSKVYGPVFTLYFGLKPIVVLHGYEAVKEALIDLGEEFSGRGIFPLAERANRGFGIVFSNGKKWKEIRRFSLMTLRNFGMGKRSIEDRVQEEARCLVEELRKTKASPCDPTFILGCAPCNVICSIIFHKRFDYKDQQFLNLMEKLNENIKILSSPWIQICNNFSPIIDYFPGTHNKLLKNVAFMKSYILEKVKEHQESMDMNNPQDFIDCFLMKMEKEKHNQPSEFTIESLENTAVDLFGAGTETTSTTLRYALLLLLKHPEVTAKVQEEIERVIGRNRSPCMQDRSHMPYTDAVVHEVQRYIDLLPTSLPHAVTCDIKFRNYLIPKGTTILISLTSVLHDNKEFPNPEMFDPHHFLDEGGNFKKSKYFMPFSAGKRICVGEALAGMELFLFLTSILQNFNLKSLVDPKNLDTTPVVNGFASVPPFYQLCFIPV

CYP3A4 = CYP3A4 (Homo sapiens, UniProt P08684); experiment: recombinant CYP inhibition, fluorescence
Chain of CYP3A4 (P08684 2-503): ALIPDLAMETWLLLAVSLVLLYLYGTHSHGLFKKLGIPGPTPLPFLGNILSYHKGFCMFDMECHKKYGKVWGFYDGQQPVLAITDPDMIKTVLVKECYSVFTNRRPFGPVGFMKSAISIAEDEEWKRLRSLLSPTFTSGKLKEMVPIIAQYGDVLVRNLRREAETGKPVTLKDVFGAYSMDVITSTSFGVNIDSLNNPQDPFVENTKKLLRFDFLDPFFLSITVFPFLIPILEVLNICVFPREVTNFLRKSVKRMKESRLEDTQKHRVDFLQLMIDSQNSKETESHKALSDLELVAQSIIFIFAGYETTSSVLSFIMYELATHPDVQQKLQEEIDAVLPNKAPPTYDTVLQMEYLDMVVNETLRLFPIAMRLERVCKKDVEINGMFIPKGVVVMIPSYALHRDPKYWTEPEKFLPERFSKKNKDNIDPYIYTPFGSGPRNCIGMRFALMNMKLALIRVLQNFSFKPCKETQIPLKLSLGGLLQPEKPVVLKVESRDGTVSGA

CYP2C19 = CYP2C19 (Homo sapiens, UniProt P33261); experiment: recombinant CYP inhibition, fluorescence
Chain of CYP2C19 (P33261 whole entry): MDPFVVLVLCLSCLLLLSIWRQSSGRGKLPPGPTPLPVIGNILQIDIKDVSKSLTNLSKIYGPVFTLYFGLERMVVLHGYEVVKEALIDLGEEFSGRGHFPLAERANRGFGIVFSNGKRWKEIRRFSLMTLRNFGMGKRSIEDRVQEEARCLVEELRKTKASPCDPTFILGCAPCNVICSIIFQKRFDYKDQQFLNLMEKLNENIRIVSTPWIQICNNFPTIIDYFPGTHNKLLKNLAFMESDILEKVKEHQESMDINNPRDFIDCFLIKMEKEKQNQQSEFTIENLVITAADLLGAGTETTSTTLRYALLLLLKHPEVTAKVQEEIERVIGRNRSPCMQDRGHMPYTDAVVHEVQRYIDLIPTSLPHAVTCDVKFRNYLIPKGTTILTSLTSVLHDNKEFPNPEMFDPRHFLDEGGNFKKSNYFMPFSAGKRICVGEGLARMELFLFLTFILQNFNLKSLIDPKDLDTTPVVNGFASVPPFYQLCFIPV

CYP2D6 = CYP2D6 (Homo sapiens, UniProt P10635); experiment: recombinant CYP inhibition, fluorescence
Chain of CYP2D6 (P10635 whole entry): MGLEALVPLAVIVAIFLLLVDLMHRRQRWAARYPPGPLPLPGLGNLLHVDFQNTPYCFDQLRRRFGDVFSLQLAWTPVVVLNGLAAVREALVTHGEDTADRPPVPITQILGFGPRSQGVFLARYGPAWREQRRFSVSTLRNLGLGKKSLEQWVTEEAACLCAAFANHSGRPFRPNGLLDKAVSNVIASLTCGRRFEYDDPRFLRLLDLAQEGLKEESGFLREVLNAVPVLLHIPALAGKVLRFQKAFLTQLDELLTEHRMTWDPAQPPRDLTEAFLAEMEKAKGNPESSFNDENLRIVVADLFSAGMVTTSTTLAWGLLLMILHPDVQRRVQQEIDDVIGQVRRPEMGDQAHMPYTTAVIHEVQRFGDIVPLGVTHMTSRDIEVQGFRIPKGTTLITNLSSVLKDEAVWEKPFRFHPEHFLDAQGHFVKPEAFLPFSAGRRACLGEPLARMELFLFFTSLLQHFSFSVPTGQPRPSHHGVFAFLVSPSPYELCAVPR

## CCNC(=O)Nc1nc2c(F)c(-c3cnc(N4CCC(C(=O)O)CC4)nc3)cc(-c3ccccn3)c2s1 [RBx 10080758]
CYP1A2
  IC50: > 10 µM
Human topoisomerase IIα
  IC50: > 959 µM
CYP2C9
  IC50: > 10 µM
CYP3A4
  IC50: > 10 µM
CYP2C19
  IC50: > 10 µM
CYP2D6
  IC50: > 10 µM

## CCNC(=O)Nc1nc2c(F)c(-c3ccc(COP(=O)(O)O)nc3)cc(-c3ccccn3)c2s1 [RBx 10115912]
CYP1A2
  IC50: > 10 µM
Human topoisomerase IIα
  IC50: > 993 µM
CYP2C9
  IC50: > 10 µM
CYP3A4
  IC50: > 10 µM
CYP2C19
  IC50: > 10 µM
CYP2D6
  IC50: > 10 µM
